Measured values taken from publication PMC6445164, “Primary mono- and bis-sulfonamides obtained via regiospecific sulfochlorination of N-arylpyrazoles: inhibition profile against a panel of human carbonic anhydrases” (Journal of Enzyme Inhibition and Medicinal Chemistry, 2017).
Read-outs that look alike come from different tables or passages of the source.

Experiments:
hCA IX = target: hCA IX; parameters: method as in PMID 26160114; settings: Figure 2; cited from earlier work
hCA XII = target: hCA XII; parameters: method as in PMID 26160114; settings: Figure 2; cited from earlier work
hCA VII = hCA VII (Homo sapiens, UniProt P43166); experiment: stopped-flow CA catalysed CO2 hydration assay, hCA VII
Chain of hCA VII (P43166 whole entry): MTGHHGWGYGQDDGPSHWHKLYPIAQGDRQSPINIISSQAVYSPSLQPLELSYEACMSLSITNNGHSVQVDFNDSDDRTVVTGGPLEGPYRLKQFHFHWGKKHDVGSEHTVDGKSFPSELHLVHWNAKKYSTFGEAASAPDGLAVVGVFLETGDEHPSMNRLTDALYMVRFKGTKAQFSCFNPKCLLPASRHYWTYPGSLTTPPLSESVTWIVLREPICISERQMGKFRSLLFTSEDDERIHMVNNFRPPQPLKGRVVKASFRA
Experimental: (§1) An applied photophysics stopped-flow instrument has been used for assaying the CA catalysed CO2 hydration activity[21]. […] The CO2 concentrations ranged from 1.7 to 17 mM for the determination of the kinetic parameters and inhibition constants. […] The uncatalysed rates were determined in the same manner and subtracted from the total observed rates. Stock solutions of inhibitor (0.1 mM) were prepared in distilled-deionized water and dilutions up to 0.005 nM were done thereafter with the assay buffer. Inhibitor and enzyme solutions were preincubated together for 15 min at room temperature prior to assay, in order to allow for the formation of the E–I complex. The inhibition constants were obtained by non-linear least-squares methods using PRISM 3 and the Cheng–Prusoff equation, as reported earlier, and represent the mean from at least three different determinations. All CA isoforms were recombinant ones obtained in-house[22–25].

hCA IV = hCA IV (Homo sapiens, UniProt P22748); experiment: stopped-flow CA catalysed CO2 hydration assay, hCA IV
Chain of hCA IV (P22748 19-312): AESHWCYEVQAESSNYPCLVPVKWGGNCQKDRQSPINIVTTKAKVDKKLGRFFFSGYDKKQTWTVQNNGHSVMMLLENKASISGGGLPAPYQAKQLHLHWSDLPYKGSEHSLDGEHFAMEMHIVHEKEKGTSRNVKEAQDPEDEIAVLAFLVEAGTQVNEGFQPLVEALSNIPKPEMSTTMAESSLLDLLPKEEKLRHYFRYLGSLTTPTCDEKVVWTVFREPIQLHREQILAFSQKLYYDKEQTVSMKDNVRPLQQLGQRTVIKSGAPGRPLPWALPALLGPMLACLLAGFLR
Experimental: as §1

hCA II = hCA II (Homo sapiens, UniProt P00918); experiment: stopped-flow CA catalysed CO2 hydration assay, hCA II
Experimental: as §1

hCA I = hCA I (Homo sapiens, UniProt P00915); experiment: stopped-flow CA catalysed CO2 hydration assay, hCA I
Chain of hCA I (P00915 whole entry): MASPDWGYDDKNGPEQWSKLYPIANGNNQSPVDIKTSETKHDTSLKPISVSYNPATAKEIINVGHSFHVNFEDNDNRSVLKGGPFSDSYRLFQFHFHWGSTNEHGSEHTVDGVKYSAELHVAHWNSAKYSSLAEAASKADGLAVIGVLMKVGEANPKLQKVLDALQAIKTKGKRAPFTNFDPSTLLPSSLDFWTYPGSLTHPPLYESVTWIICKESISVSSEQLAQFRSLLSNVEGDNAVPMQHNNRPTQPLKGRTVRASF
Experimental: as §1

[1] = within the panel hCA I, II, IV, VII

SMILES: NS(=O)(=O)c1ccc(-c2cnc(C(=O)N3CCCC3)o2)s1 [Compound 4]
- Ki (hCA IX): 18.7 nM
- Ki (hCA XII): 6.7 nM

SMILES: Cc1ccc(S(N)(=O)=O)cc1-n1nc(C)c(S(N)(=O)=O)c1C [Compound 9h, 3,5-Dimethyl-1-(2-methyl-5-sulfamoylphenyl)-^1H-pyrazole-4-sulfonamide]
- Ki (hCA VII): > 10 µM
- Ki (hCA IV): > 10 µM
- melting point: 308 to 310 °C
- Ki (hCA II): > 10 µM
- Ki (hCA I): 0.87 µM
- isoform selectivity for hCA I, in words (hCA I; [1]): selective inhibitor of hCA I

SMILES: Cc1ccc(S(N)(=O)=O)cc1-n1cc(S(N)(=O)=O)cn1 [Compound 9i, 1-(2-Methyl-5-sulfamoylphenyl)-^1H-pyrazole-4-sulfonamide]
- Ki (hCA VII; read-out: hCA Ki (μM) hCA VII, recombinant enzyme, stopped-flow CO2 hydration, 15 min preincubation, pH 8.3): 0.014 µM
- Ki (hCA IV; read-out: hCA Ki (μM) hCA IV, recombinant enzyme, stopped-flow CO2 hydration, 15 min preincubation, pH 8.3): 7.86 µM
- melting point: 185 to 188 °C
- Ki (hCA II; read-out: hCA Ki (μM) hCA II, recombinant enzyme, stopped-flow CO2 hydration, 15 min preincubation, pH 8.3): 0.03 µM
- Ki (hCA I; read-out: hCA Ki (μM) hCA I, recombinant enzyme, stopped-flow CO2 hydration, 15 min preincubation, pH 8.3): 0.55 µM

SMILES: COc1ccc(-n2nc(C)c(S(N)(=O)=O)c2C)cc1S(N)(=O)=O [Compound 9j, 1-(4-Methoxy-3-sulfamoylphenyl)-3,5-dimethyl-^1H-pyrazole-4-sulfonamide]
- Ki (hCA VII): 0.33 µM
- Ki (hCA IV): > 10 µM
- melting point: 254 to 257 °C
- Ki (hCA II): 0.96 µM
- Ki (hCA I): 0.95 µM

SMILES: COc1cc(-n2nc(C)c(S(N)(=O)=O)c2C)ccc1S(N)(=O)=O [Compound 9k, 1-(3-Methoxy-4-sulfamoylphenyl)-3,5-dimethyl-^1H-pyrazole-4-sulfonamide]
- Ki (hCA VII): 0.17 µM
- Ki (hCA IV): > 10 µM
- melting point: 256 to 258 °C
- Ki (hCA II): 0.61 µM
- Ki (hCA I): 4.65 µM

SMILES: COc1ccc(S(N)(=O)=O)cc1-n1nc(C)c(S(N)(=O)=O)c1C [Compound 9l, 1-(2-Methoxy-5-sulfamoylphenyl)-3,5-dimethyl-^1H-pyrazole-4-sulfonamide]
- Ki (hCA VII): > 10 µM
- Ki (hCA IV): 0.95 µM
- melting point: 238 to 242 °C
- Ki (hCA II): 0.3 µM
- Ki (hCA I): 6.8 µM

SMILES: Cc1nn(-c2ccc(Cl)c(S(N)(=O)=O)c2)c(C)c1S(N)(=O)=O [Compound 9m, 1-(4-Chloro-3-sulfamoylphenyl)-3,5-dimethyl-^1H-pyrazole-4-sulfonamide]
- Ki (hCA VII): 0.65 µM
- Ki (hCA IV): 0.077 µM
- melting point: 241 to 243 °C
- Ki (hCA II): 0.04 µM
- Ki (hCA I): 0.89 µM

SMILES: NS(=O)(=O)c1cnn(-c2ccc(Cl)c(S(N)(=O)=O)c2)c1 [Compound 9n, 1-(4-Chloro-3-sulfamoylphenyl)-^1H-pyrazole-4-sulfonamide]
- Ki (hCA VII): 0.099 µM
- Ki (hCA IV): 0.074 µM
- melting point: 232 to 235 °C
- Ki (hCA II): 0.024 µM
- Ki (hCA I): 0.62 µM

SMILES: Cc1nn(-c2ccc(S(N)(=O)=O)c(Cl)c2)c(C)c1S(N)(=O)=O [Compound 9o, 1-(3-Chloro-4-sulfamoylphenyl)-3,5-dimethyl-^1H-pyrazole-4-sulfonamide]
- Ki (hCA VII): 0.71 µM
- Ki (hCA IV): 0.93 µM
- melting point: 198 to 201 °C
- Ki (hCA II): 0.008 µM
- Ki (hCA I): 0.16 µM

SMILES: NS(=O)(=O)c1cnn(-c2ccc(S(N)(=O)=O)c(Cl)c2)c1 [Compound 9p, 1-(3-Chloro-4-sulfamoylphenyl)-^1H-pyrazole-4-sulfonamide]
- Ki (hCA VII): 0.48 µM
- Ki (hCA IV): 0.075 µM
- melting point: 195 to 197 °C
- Ki (hCA II): 0.008 µM
- Ki (hCA I): 3.08 µM

SMILES: Cc1nn(-c2cc(S(N)(=O)=O)ccc2Cl)c(C)c1S(N)(=O)=O [Compound 9q, 1-(2-Chloro-5-sulfamoylphenyl)-3,5-dimethyl-^1H-pyrazole-4-sulfonamide]
- Ki (hCA VII): > 10 µM
- Ki (hCA IV): 4.38 µM
- melting point: 230 to 232 °C
- Ki (hCA II): 0.025 µM
- isoform selectivity for hCA II, in words (hCA II; [1]): selective hCA II inhibitor
- Ki (hCA I): 2.12 µM

SMILES: NS(=O)(=O)c1ccc(Cl)c(-n2cc(S(N)(=O)=O)cn2)c1 [Compound 9r, 1-(2-Chloro-5-sulfamoylphenyl)-^1H-pyrazole-4-sulfonamide]
- Ki (hCA VII): 0.6 µM
- Ki (hCA IV): 0.022 µM
- melting point: 235 to 237 °C
- Ki (hCA II): 0.005 µM
- Ki (hCA I): 0.55 µM
